From patent US8673965B2, “Composition for the treatment of arthritis containing a dibenzo-p-dioxin derivative as the active ingredient” (Livechem, Inc., priority 2008, dated 2014)

What was measured:
AP-1 = assay: AP-1-luciferase reporter in IL-1α-stimulated rabbit articular cartilage tissue; type: cell-based; details: 10 μg/mL, 5 ng/mL rhIL-1α; for inhibition at 10 µg/mL: Oryctolagus cuniculus, AP1, luciferase activity
Protocol: (§1) A five-week-old rabbit was killed, from the hock joint of which the articular cartilage was then taken. The articular surface (200˜220 mg/joint) was placed in a complete medium (DMEM, supplemented with heat inactivated 5% FBS; penicillin 100 U/mL; streptomycin 100 μg/mL) under sterile conditions. It was washed three or four times and then incubated at 37° C. for about 1˜2 days under sterile conditions and under 5% CO2/95% air conditions, after which AP-1-luciferase or NFkB-luciferase reporter plasmid DNA (each 0.5 μg: Stratagene) was transfected into the incubated tissue using a Lipofectamin transfection reagent (Invitrogen, Carlsbad, Calif., U.S.A.). After 24 hours, the complete medium was exchanged with a basic medium (DMEM, supplemented with heat inactivated 1% FBS, 10 mM HEPES, penicillin 100 U/mL, streptomycin 100 μg/mL). […] After 1 hour, the culture medium of each group was treated with 5 ng/mL rhIL-1α (R&D systems, Minneapolis, USA). Then, the culture medium was incubated at […] under 5% CO2/95% air conditions for 60 hours, and then treated with a lysis buffer (0.1M potassium phosphate buffer, pH 7.8/1% Triton X-100/1 mM DTT/2 mM EDTA), and the luciferase activity in the culture medium was measured using a luminometer (Monolight 2010).

NF-kB = assay: NFkB-luciferase reporter in IL-1α-stimulated rabbit articular cartilage tissue; type: cell-based; details: 10 μg/mL, 5 ng/mL rhIL-1α
Protocol: as §1

arthritis induced rabbit = assay: External-use compositions in collagenase arthritis induced rabbit; type: in vivo; details: for Heating score / Limping score / Reddening score / Swelling score: score 0-3; for Max. Effect during Treatment: (total score 7th day − 14th day)/7th day; for Total Treatment Effect: (total score 7th day − 21st day)/7th day; for Healing Effect upon Discontinuation of Treatment: (total score 14th day − 21st day)/14th day
Protocol: The composition of a carrier used to absorb the active ingredient into the skin was made referring to Bookman et al (Can. Med. Assoc. J. 171(4) 333-338 (2004)).
In order to induce arthritis in the rabbit, six test groups were set up, and five rabbits were randomly assigned into each group. A collagenase solution (4 mg/mL, saline) was filtered with a 0.22 μm membrane. 2.5˜3.0 kg weighed rabbits assigned into six test groups were anesthetized with tiletamine-zolazepam (Zoletil 50, Virbac, France). The region around the right knee joint of each rabbit was shaved and disinfected, after which the articular cavity thereof was injected with 0.25 mL of saline in one test group and 0.25 mL of the collagenase solution in the other five test groups (Choi, et al. Osteoarthritis and Cartilage 10, 471-478 (2002)). […] This model has been adopted because it is similar to the degeneration of the cartilage tissue in the human degenerative arthritis.
From the 7th day, 0.3 mL of each of the external-use compositions of Table 3 was sufficiently applied two times per day for 7 days to the affected part of the five test groups treated with the collagenase solution, and no treatment was performed for the following 7 days in order to evaluate the fundamental healing effects. The swelling, reddening, heat and limping of the articular part were quantitatively evaluated on the day (0th day) immediately before collagenase treatment, the 7th day, the 14th day and the 21st day, using the evaluation criteria comprising 0 (normal), 1 (low), 2 (middle), 3 (high). In order to objectively evaluate the effects of respective treatment solutions, the total score at each evaluation was compared, and “maximum effect during treatment”, “total treatment effect”, “healing effect upon discontinuation of treatment” were calculated by the following equations.
(1) Maximum effect during treatment=(total score on 7th day−total score on 14th day)/total score on 7th day,
(2) Total treatment effect=(total score on 7th day−total score on 21st day)/total score on 7th day,
(3) Healing effect upon discontinuation of treatment=(total score on 14th day−total score on 21st day)/total score on 14th day.

[1] = 7th Day (before treatment), 1.5% active, 0.3 mL twice daily topical
[2] = 14th Day (end of 7-day treatment)
[3] = 21st Day (7 days after discontinuation)

CC(C(=O)O)c1cccc(C(=O)c2ccccc2)c1 (stereo not shown) [Ketoprofen, ketoprofen]
inhibition at 10 µg/mL (AP-1): 22% | NF-kB Activity Inhibition (%) (NF-kB): 12%

CC(C)Cc1ccc(C(C)C(=O)O)cc1 (stereo not shown) [Ibuprofen, ibuprofen]
inhibition at 10 µg/mL (AP-1): 27% | NF-kB Activity Inhibition (%) (NF-kB): 23%

Cc1ccc(-c2cc(C(F)(F)F)nn2-c2ccc(S(N)(=O)=O)cc2)cc1 [Celecoxib, celecoxib]
inhibition at 10 µg/mL (AP-1): 23% | NF-kB Activity Inhibition (%) (NF-kB): 10%

COc1ccc2c(c1)c(CC(=O)O)c(C)n2C(=O)c1ccc(Cl)cc1 [Indomethacin, indomethacin]
inhibition at 10 µg/mL (AP-1): 34%

O=C(O)Cc1ccccc1Nc1c(Cl)cccc1Cl [Dichlofenac, dichlofenac]
AP-1 Activity Inhibition (%) (AP-1): 34% | NF-kB Activity Inhibition (%) (NF-kB): 32%

O=C([O-])Cc1ccccc1Nc1c(Cl)cccc1Cl.[Na+] [Dichlofenac Sodium]
Total Score (arthritis induced rabbit; 7th Day (before treatment)): 11.4 ± 1.34 | Heating score (arthritis induced rabbit; 7th Day (before treatment)): 2.8 ± 0.45 | Limping score (arthritis induced rabbit; 7th Day (before treatment)): 3.0 ± 0.00 | Reddening score (arthritis induced rabbit; 7th Day (before treatment)): 2.8 ± 0.45 | Swelling score (arthritis induced rabbit; [1]): 2.8 ± 0.45 | Total Score (arthritis induced rabbit; 14th Day): 5.8 ± 1.3 | Swelling score (arthritis induced rabbit; [2]): 1.4 ± 0.55 | Heating score (arthritis induced rabbit; 14th Day): 1.4 ± 0.55 | Limping score (arthritis induced rabbit; 14th Day): 1.6 ± 0.55 | Reddening score (arthritis induced rabbit; 14th Day): 1.4 ± 0.55 | Total Score (arthritis induced rabbit; 21st Day): 5.4 ± 0.55 | Swelling score (arthritis induced rabbit; [3]): 1.4 ± 0.55 | Heating score (arthritis induced rabbit; 21st Day): 1.2 ± 0.45 | Limping score (arthritis induced rabbit; 21st Day): 1.4 ± 0.55 | Reddening score (arthritis induced rabbit; 21st Day): 1.4 ± 0.55 | Max. Effect during Treatment (arthritis induced rabbit): 49.1% | Total Treatment Effect (arthritis induced rabbit): 52.6% | Healing Effect upon Discontinuation of Treatment (arthritis induced rabbit): 6.9%

CC(=O)Oc1ccccc1C(=O)O [Aspirin, aspirin]
inhibition at 10 µg/mL (AP-1): 46% | Heating score (arthritis induced rabbit; 7th Day (before treatment)): 3.0 ± 0.00 | Limping score (arthritis induced rabbit; 7th Day (before treatment)): 2.8 ± 0.45 | Reddening score (arthritis induced rabbit; 7th Day (before treatment)): 2.8 ± 0.45 | Swelling score (arthritis induced rabbit; [1]): 3.0 ± 0.00 | Total Score (arthritis induced rabbit; 14th Day): 6.0 ± 0.71 | Swelling score (arthritis induced rabbit; [2]): 1.6 ± 0.55 | Heating score (arthritis induced rabbit; 14th Day): 1.4 ± 0.55 | Limping score (arthritis induced rabbit; 14th Day): 1.4 ± 0.55 | Reddening score (arthritis induced rabbit; 14th Day): 1.6 ± 0.55 | Total Score (arthritis induced rabbit; 21st Day): 5.0 ± 1.0 | Swelling score (arthritis induced rabbit; [3]): 1.2 ± 0.45 | Heating score (arthritis induced rabbit; 21st Day): 1.2 ± 0.45 | Limping score (arthritis induced rabbit; 21st Day): 1.2 ± 0.45 | Reddening score (arthritis induced rabbit; 21st Day): 1.4 ± 0.55 | Max. Effect during Treatment (arthritis induced rabbit): 48.3% | Total Treatment Effect (arthritis induced rabbit): 56.9% | Healing Effect upon Discontinuation of Treatment (arthritis induced rabbit): 16.7% | NF-kB Activity Inhibition (%) (NF-kB): 48%
